pIC50: −log10 of the molar value.

This experiment concerns HCT-116. The experiment can be described thus: Cytotoxicity against human HCT116 cells after 72 hrs by MTS/PMS assay. Type of experiment: functional, cell-based. To be noted: HCT-116, 72 h.
`CO/C(=C\c1ccc(O)cc1)C(=O)N/C=C/c1ccc(OC)cc1` [BOTRYLLAMIDE E] had a pIC50 of 4.52.
Turning to `CO/C(=C\c1ccc(O)cc1)C(=O)N/C=C/c1cc(Br)c(OC)c(Br)c1` [BOTRYLLAMIDE A], the pIC50 was 4.48.
The compound `CO/C(=C\c1ccc(O)cc1)C(=O)N/C=C/c1ccc(OC)c(Br)c1` [BOTRYLLAMIDE C] had a pIC50 of 4.55.
Turning to `CO/C(=C\c1ccc(O)cc1)C(=O)N/C=C/c1ccc(O)cc1` [BOTRYLLAMIDE F], the pIC50 was 4.07.
`CO/C(=C\c1ccc(O)cc1)C(=O)N/C=C/c1cc(Br)c(O)c(Br)c1` [BOTRYLLAMIDE G]: the pIC50 was 3.96.

A word on the pIC50: it is the IC50 on a negative log10 scale, so that one unit is a factor of ten.
